Assay results published in patent US12691083B2, “Pharmaceutical composition for preventing or treating attention deficit/hyperactivity disorder, containing KDS2010 as active ingredient” (DANKOOK UNIVERSITY CHEONAN CAMPUS INDUSTRY ACADEMIC …, priority 2021, dated 2026).

Columns and labels:
Assay type in all cases: in vivo
[1] = tested on: Git1 gene-deficient hetero (+/−) mice; assay: Passive avoidance test (fear memory learning ability); details: Git1 hetero type (+/−) mice, KDS2010 orally 10 mg/kg per day
Procedure: The hippocampus, one of the regions that affects ADHD, is responsible for functions related to learning and memory. In order to evaluate the effect of ameliorating ADHD upon administration of KDS2010, KDS2010 was administered to Git1 gene-deficient hetero (+/−) mice, an animal model with ADHD, and a passive avoidance test that enables evaluation on a fear memory learning ability in relation to the function of the dentate gyrus in the hippocampus was conducted. The passive avoidance test was performed using a common passive avoidance test device which was a shuttle box divided into two rooms, one of which was equipped with a bright light bulb to create a bright environment that the laboratory animals dislike, while the other room was designed not to allow light to enter such that the laboratory animals may feel comfortable. […] Immediately thereafter, after 24 hours and after 48 hours, the latency time of entering a dark room without an electric shock is measured up to 90 seconds (retention tests 1, 2, and 3).
The KDS2010 was orally administered at a concentration of 10 mg/kg per day. The amount (mg) of each drug was calculated according to the weight (kg) of each mouse, followed by dissolution in 100 μL of drinking water. […] The daily amount of water consumed by adult mice older than 7 weeks was administered at a calculated dose of 10 ml/day. […]

[2] = tested on: Git1 hetero type (+/−) mice; assay: Open field test (hyperactivity, locomotor activity); details: Git1 hetero type (+/−) mice administered KDS2010; movement measured for 10 minutes; FIG. 4
Procedure: (§1) The KDS2010 was orally administered at a concentration of 10 mg/kg per day. The amount (mg) of each drug was calculated according to the weight (kg) of each mouse, followed by dissolution in 100 μL of drinking water. Oral administration was performed once a day. The daily amount of water consumed by adult mice older than 7 weeks was administered at a calculated dose of […]. The drug was administered 3 days prior to passive avoidance, and the drug administration was continued during the passive avoidance test. KDS2010 is an inhibitor against monoamine oxidase B (MAOB) and may reduce GABA levels that are increased in astrocytes of the hippocampus.
ADHD is diagnosed based on two main tendencies including a hyperactive type and an inattention type, but the two symptoms don't necessarily occur together. From this point of view, hyperactivity-related abilities should not be impaired in the course of treatment for inattention, which has been determined through an open field test that enables measurement of hyperactivity.
An open field test was performed to assess whether there is a behavioral improvement. […] The mice were placed in the center of an open field test cage (30×30×30 cm), and its movement was measured for 10 minutes. The measured videos were analyzed for locomotor activity through ANYmaze.

[3] = tested on: Git1 hetero type (+/−) mice; assay: Self-grooming test; details: Git1 hetero type (+/−) mice administered KDS2010; recorded for 10 minutes; compared with wild type (+/+); FIG. 5
Procedure: as §1
For a self-grooming test, mice were placed in a plastic cylinder with a diameter of 15 cm and a height of 35 cm. In the plastic cylinder, mice were habituated for about 20 minutes, and then self-grooming behavior was recorded for 10 minutes. The duration of the self-grooming behavior was checked through the recorded video, and if there was an interval of 5 seconds, it was measured as different self-grooming. The number of each different self-grooming behavior was expressed as each different self-grooming bout.

C[C@H](NCc1ccc(-c2ccc(C(F)(F)F)cc2)cc1)C(N)=O [KDS2010, (S)-2-(((4′-(trifluoromethyl)-[1,1′-biphenyl]-4-yl)methyl)amino)propenamide] was tested, and the “fear memory learning ability” value ([1]; from 3 days prior to and during test, compared with wild type (+/+), FIG. 2) was “recovery in the fear memory learning ability, similar to the wild type (+/+) mice”, the “entry time (time to enter the dark room), retention” value ([1]; retention trial, compared with wild type) was “entry time recovered closer to the wild type” and the effect on hyperactivity [2] was “no effect was derived on hyperactivity”. The self-grooming duration [3] was “decrease to a value similar to the wild type (+/+) mice”.
